Test results from patent publication US20230085307A1, “PYRIDAZINONE COMPOUND AND HERBICIDE” (NISSAN CHEMICAL CORPORATION, priority 2019, published 2023).

Tests used:
late watergrass = assay: Test Example 2: herbicidal activity, application during weed generation under submerged conditions (Table 17, symbol A); type: in vivo, late watergrass (Echinochloa oryzicola); details: AAH 320 g/ha; application during weed generation, submerged conditions
Procedure, shortened: (§1)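 Alluvial soil in Wagner pots was flooded to 4 cm depth and sown with the three weeds together; pots were kept in a greenhouse at 25° C. to 30° C. At the one to two leaf stage, an emulsion formulation diluted in water to a set rate went onto the water surface; scored three weeks later.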

Japanese bulrush = assay: Test Example 2: herbicidal activity, application during weed generation under submerged conditions (Table 17, symbol B); type: in vivo, Japanese bulrush (Schoenoplectus juncoides); details: AAH 320 g/ha; application during weed generation, submerged conditions
Procedure, shortened: as §1

oval-leafed pondweed = assay: Test Example 2: herbicidal activity, application during weed generation under submerged conditions (Table 17, symbol C); type: in vivo, oval-leafed pondweed (Monochoria vaginalis); details: AAH 320 g/ha; application during weed generation, submerged conditions
Procedure, shortened: as §1

barnyard grass [1] = assay: Test Example 3: herbicidal effect by foliage application, Wagner pot (Table 18, symbol H); type: in vivo, barnyard grass (Echinochloa crus-galli)
Procedure, shortened: (§2)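 Plants were sown in alluvial soil held under 0.1–0.5 cm standing water and grown 14 days in a greenhouse at 25–30 °C. An emulsifiable formulation, water-diluted to the set dose, was then sprayed onto the foliage, and effects were scored three weeks later using previously defined criteria.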

Chinese sprangletop = assay: Test Example 3: herbicidal effect by foliage application, Wagner pot (Table 18, symbol D); type: in vivo, chinese sprangletop (Leptochloa chinensis)
Procedure, shortened: as §2

rice flat sedge = assay: Test Example 3: herbicidal effect by foliage application, Wagner pot (Table 18, symbol E); type: in vivo, rice flat sedge (Cyperus iria)
Procedure, shortened: as §2

southern crabgrass [2] = assay: Test Example 4: herbicidal effect by soil treatment (Table 19, symbol F); type: in vivo, southern crabgrass (Digitaria ciliaris)
Procedure, shortened: (§3)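 Soil-surface application: an emulsion agent diluted with water to the predetermined dose is sprayed uniformly over seeds lying under roughly 1.5 cm of sterilized diluvial soil. Boxes stay in a greenhouse at 25° C. to 30° C. Three weeks later, each species is graded on previously defined criteria.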

green foxtail [3] = assay: Test Example 4: herbicidal effect by soil treatment (Table 19, symbol G); type: in vivo, green foxtail (Setaria viridis)
Procedure, shortened: as §3

barnyard grass [4] = assay: Test Example 4: herbicidal effect by soil treatment (Table 19, symbol H); type: in vivo, barnyard grass (Echinochloa crus-galli)
Procedure, shortened: as §3

wild oat [5] = assay: Test Example 4: herbicidal effect by soil treatment (Table 19, symbol I); type: in vivo, wild oat (Avena fatua)
Procedure, shortened: as §3

blackgrass [6] = assay: Test Example 4: herbicidal effect by soil treatment (Table 19, symbol J); type: in vivo, blackgrass (Alopecurus myosuroides); details: 320 g/ha
Procedure, shortened: as §3

Italian ryegrass [7] = assay: Test Example 4: herbicidal effect by soil treatment (Table 19, symbol K); type: in vivo, Italian ryegrass (Lolium multiflorum)
Procedure, shortened: as §3

windgrass [8] = assay: Test Example 4: herbicidal effect by soil treatment (Table 19, symbol L); type: in vivo, windgrass (Apera spica-venti)
Procedure, shortened: as §3

velvetleaf [9] = assay: Test Example 4: herbicidal effect by soil treatment (Table 19, symbol M); type: in vivo, velvetleaf (Abutilon theophrasti)
Procedure, shortened: as §3

redroot pigweed [10] = assay: Test Example 4: herbicidal effect by soil treatment (Table 19, symbol N); type: in vivo, redroot pigweed (Amaranthus retroflexus)
Procedure, shortened: as §3

lambsquarters [11] = assay: Test Example 4: herbicidal effect by soil treatment (Table 19, symbol O); type: in vivo, lambsquarters (Chenopodium album)
Procedure, shortened: as §3

chickweed [12] = assay: Test Example 4: herbicidal effect by soil treatment (Table 19, symbol P); type: in vivo, common chickweed (Stellaria media)
Procedure, shortened: as §3

false cleavers [13] = assay: Test Example 4: herbicidal effect by soil treatment (Table 19, symbol Q); type: in vivo, false cleavers (Galium spurium)
Procedure, shortened: as §3

persian speedwell [14] = assay: Test Example 4: herbicidal effect by soil treatment (Table 19, symbol R); type: in vivo, Persian speedwell (Veronica persica)
Procedure, shortened: as §3

southern crabgrass [15] = assay: Test Example 5: herbicidal effect by foliage application, plastic box (Table 20, symbol F); type: in vivo, southern crabgrass (Digitaria ciliaris); details: foliage application, 320 g/ha, evaluated three weeks after application
Procedure, shortened: (§4)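 Sow seeds spot-wise in sterilized diluvial soil; cover with ~1.5 cm soil. Grow 14 days in greenhouse, 25° C. to 30° C. Spray foliage with emulsion diluted to predetermined amount. Rate effect after 3 weeks.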

green foxtail [16] = assay: Test Example 5: herbicidal effect by foliage application, plastic box (Table 20, symbol G); type: in vivo, green foxtail (Setaria viridis); details: foliage application, 320 g/ha, evaluated three weeks after application
Procedure, shortened: as §4

barnyard grass [17] = assay: Test Example 5: herbicidal effect by foliage application, plastic box (Table 20, symbol H); type: in vivo, barnyard grass (Echinochloa crus-galli); details: foliage application, 320 g/ha, evaluated three weeks after application
Procedure, shortened: as §4

wild oat [18] = assay: Test Example 5: herbicidal effect by foliage application, plastic box (Table 20, symbol I); type: in vivo, wild oat (Avena fatua); details: foliage application, 320 g/ha, evaluated three weeks after application
Procedure, shortened: as §4

blackgrass [19] = assay: Test Example 5: herbicidal effect by foliage application, plastic box (Table 20, symbol J); type: in vivo, blackgrass (Alopecurus myosuroides); details: foliage application, 320 g/ha, evaluated three weeks after application
Procedure, shortened: as §4

Italian ryegrass [20] = assay: Test Example 5: herbicidal effect by foliage application, plastic box (Table 20, symbol K); type: in vivo, Italian ryegrass (Lolium multiflorum); details: foliage application, 320 g/ha, evaluated three weeks after application
Procedure, shortened: as §4

windgrass [21] = assay: Test Example 5: herbicidal effect by foliage application, plastic box (Table 20, symbol L); type: in vivo, windgrass (Apera spica-venti); details: foliage application, 320 g/ha, evaluated three weeks after application
Procedure, shortened: as §4

velvetleaf [22] = assay: Test Example 5: herbicidal effect by foliage application, plastic box (Table 20, symbol M); type: in vivo, velvetleaf (Abutilon theophrasti); details: foliage application, 320 g/ha, evaluated three weeks after application
Procedure, shortened: as §4

redroot pigweed [23] = assay: Test Example 5: herbicidal effect by foliage application, plastic box (Table 20, symbol N); type: in vivo, redroot pigweed (Amaranthus retroflexus); details: foliage application, 320 g/ha, evaluated three weeks after application
Procedure, shortened: as §4

lambsquarters [24] = assay: Test Example 5: herbicidal effect by foliage application, plastic box (Table 20, symbol O); type: in vivo, lambsquarters (Chenopodium album); details: foliage application, 320 g/ha, evaluated three weeks after application
Procedure, shortened: as §4

chickweed [25] = assay: Test Example 5: herbicidal effect by foliage application, plastic box (Table 20, symbol P); type: in vivo, common chickweed (Stellaria media); details: foliage application, 320 g/ha, evaluated three weeks after application
Procedure, shortened: as §4

false cleavers [26] = assay: Test Example 5: herbicidal effect by foliage application, plastic box (Table 20, symbol Q); type: in vivo, false cleavers (Galium spurium); details: foliage application, 320 g/ha, evaluated three weeks after application
Procedure, shortened: as §4

persian speedwell [27] = assay: Test Example 5: herbicidal effect by foliage application, plastic box (Table 20, symbol R); type: in vivo, Persian speedwell (Veronica persica); details: foliage application, 320 g/ha, evaluated three weeks after application
Procedure, shortened: as §4

[28] = amount of applied herbicide 320 g/ha

Compound	herbicidal effect rating, A: late watergrass (late watergrass)	herbicidal effect rating, B: Japanese bulrush (Japanese bulrush)	herbicidal effect rating, C: oval-leafed pondweed (oval-leafed pondweed)	herbicidal effect on F: southern crabgrass (southern crabgrass [15])	herbicidal effect on G: green foxtail (green foxtail [16])	herbicidal effect on H: barnyard grass (barnyard grass [17])	herbicidal effect on I: wild oat (wild oat [18])	herbicidal effect on J: blackgrass (blackgrass [19])	herbicidal effect on K: Italian ryegrass (Italian ryegrass [20])	herbicidal effect on L: windgrass (windgrass [21])	herbicidal effect on M: velvetleaf (velvetleaf [22])	herbicidal effect on N: redroot pigweed (redroot pigweed [23])	herbicidal effect on O: lambsquarters (lambsquarters [24])	herbicidal effect on P: chickweed (chickweed [25])	herbicidal effect on Q: false cleavers (false cleavers [26])	herbicidal effect on R: persian speedwell (persian speedwell [27])	also measured
CCCC(=O)Oc1c(C)nn(C)c(=O)c1-c1c(-c2ccc3c(c2)OCCO3)sc2ccc(F)cc12 [2-093]	3 (Herbicidal rate of 40% or more and less than 70%)	5 (Herbicidal rate of 90% or more (almost completely withered))	5 (Herbicidal rate of 90% or more (almost completely withered))	3 (Herbicidal rate of 40% or more and less than 70%)	3 (Herbicidal rate of 40% or more and less than 70%)	3 (Herbicidal rate of 40% or more and less than 70%)	0 (Herbicidal rate of 5% or less (almost no effect))	0 (Herbicidal rate of 5% or less (almost no effect))	0 (Herbicidal rate of 5% or less (almost no effect))	0 (Herbicidal rate of 5% or less (almost no effect))	5 (Herbicidal rate of 90% or more (almost completely withered))	5 (Herbicidal rate of 90% or more (almost completely withered))	5 (Herbicidal rate of 90% or more (almost completely withered))	5 (Herbicidal rate of 90% or more (almost completely withered))	4 (Herbicidal rate of 70% or more and less than 90%)	5 (Herbicidal rate of 90% or more (almost completely withered))	herbicidal effect on H (barnyard grass), rating 0-5 (barnyard grass [1]; 320 g/ha): 5 (Herbicidal rate of 90% or more (almost completely withered)); herbicidal effect on D (Chinese sprangletop), rating 0-5 (Chinese sprangletop; 320 g/ha): 2 (Herbicidal rate of 20% or more and less than 40%); herbicidal effect on E (rice flat sedge), rating 0-5 (rice flat sedge; 320 g/ha): 5 (Herbicidal rate of 90% or more (almost completely withered)); herbicidal effect rating, F: southern crabgrass (southern crabgrass [2]; 320 g/ha): 3 (Herbicidal rate of 40% or more and less than 70%); herbicidal effect rating, G: green foxtail (green foxtail [3]; 320 g/ha): 3 (Herbicidal rate of 40% or more and less than 70%); herbicidal effect rating, H: barnyard grass (barnyard grass [4]; 320 g/ha): 3 (Herbicidal rate of 40% or more and less than 70%); herbicidal effect rating, I: wild oat (wild oat [5]; 320 g/ha): 0 (Herbicidal rate of 5% or less (almost no effect)); herbicidal effect rating, J: blackgrass (blackgrass [6]): 0 (Herbicidal rate of 5% or less (almost no effect)); herbicidal effect rating, K: Italian ryegrass (Italian ryegrass [7]; 320 g/ha): 0 (Herbicidal rate of 5% or less (almost no effect)); herbicidal effect rating, L: windgrass (windgrass [8]; 320 g/ha): 0 (Herbicidal rate of 5% or less (almost no effect)); herbicidal effect rating, M: velvetleaf (velvetleaf [9]; 320 g/ha): 5 (Herbicidal rate of 90% or more (almost completely withered)); herbicidal effect rating, N: redroot pigweed (redroot pigweed [10]; 320 g/ha): 5 (Herbicidal rate of 90% or more (almost completely withered)); herbicidal effect rating, O: lambsquarters (lambsquarters [11]; 320 g/ha): 5 (Herbicidal rate of 90% or more (almost completely withered)); herbicidal effect rating, P: chickweed (chickweed [12]; 320 g/ha): 4 (Herbicidal rate of 70% or more and less than 90%); herbicidal effect rating, Q: false cleavers (false cleavers [13]; 320 g/ha): 3 (Herbicidal rate of 40% or more and less than 70%); herbicidal effect rating, R: persian speedwell (persian speedwell [14]; 320 g/ha): 5 (Herbicidal rate of 90% or more (almost completely withered))
CCCC(=O)Oc1c(C)nn(C)c(=O)c1-c1c(-c2ccc3c(c2)OCCO3)sc2ccc(Cl)cc12 [2-128]	0 (Herbicidal rate of 5% or less (almost no effect))	0 (Herbicidal rate of 5% or less (almost no effect))	3 (Herbicidal rate of 40% or more and less than 70%)	0 (Herbicidal rate of 5% or less (almost no effect))	0 (Herbicidal rate of 5% or less (almost no effect))	0 (Herbicidal rate of 5% or less (almost no effect))	0 (Herbicidal rate of 5% or less (almost no effect))	0 (Herbicidal rate of 5% or less (almost no effect))	0 (Herbicidal rate of 5% or less (almost no effect))	0 (Herbicidal rate of 5% or less (almost no effect))	2 (Herbicidal rate of 20% or more and less than 40%)	3 (Herbicidal rate of 40% or more and less than 70%)	1 (Herbicidal rate of 5% or more and less than 20%)	5 (Herbicidal rate of 90% or more (almost completely withered))	0 (Herbicidal rate of 5% or less (almost no effect))	5 (Herbicidal rate of 90% or more (almost completely withered))	herbicidal effect on H: barnyard grass (barnyard grass [1]; [28]): 3 (Herbicidal rate of 40% or more and less than 70%); herbicidal effect on D: Chinese sprangletop (Chinese sprangletop; [28]): 0 (Herbicidal rate of 5% or less (almost no effect)); herbicidal effect on E: rice flat sedge (rice flat sedge; [28]): 0 (Herbicidal rate of 5% or less (almost no effect)); F: southern crabgrass, herbicidal effect rating (southern crabgrass [2]; [28]): 0 (Herbicidal rate of 5% or less (almost no effect)); G: green foxtail, herbicidal effect rating (green foxtail [3]; [28]): 0 (Herbicidal rate of 5% or less (almost no effect)); H: barnyard grass, herbicidal effect rating (barnyard grass [4]; [28]): 0 (Herbicidal rate of 5% or less (almost no effect)); I: wild oat, herbicidal effect rating (wild oat [5]; [28]): 0 (Herbicidal rate of 5% or less (almost no effect)); K: Italian ryegrass, herbicidal effect rating (Italian ryegrass [7]; [28]): 0 (Herbicidal rate of 5% or less (almost no effect)); L: windgrass, herbicidal effect rating (windgrass [8]; [28]): 0 (Herbicidal rate of 5% or less (almost no effect)); M: velvetleaf, herbicidal effect rating (velvetleaf [9]; [28]): 0 (Herbicidal rate of 5% or less (almost no effect)); N: redroot pigweed, herbicidal effect rating (redroot pigweed [10]; [28]): 0 (Herbicidal rate of 5% or less (almost no effect)); O: lambsquarters, herbicidal effect rating (lambsquarters [11]; [28]): 0 (Herbicidal rate of 5% or less (almost no effect)); P: chickweed, herbicidal effect rating (chickweed [12]; [28]): 1 (Herbicidal rate of 5% or more and less than 20%); Q: false cleavers, herbicidal effect rating (false cleavers [13]; [28]): 0 (Herbicidal rate of 5% or less (almost no effect)); R: persian speedwell, herbicidal effect rating (persian speedwell [14]; [28]): 5 (Herbicidal rate of 90% or more (almost completely withered))
